From the kinase profiling compilation of Christmann-Franck et al. (2016)

How the values were obtained:
Experiment in all cases: KINOMEscan competition binding
Settings in all cases: compound 1.0 µM
DYRK1A (human) = DYRK1A (human) (UniProt Q13627)
CSK (human) = CSK (human) (UniProt P41240)
MST4 (human) = MST4 (human) (UniProt Q9P289)
ROCK2 (human) = ROCK2 (human) (UniProt O75116)
SYK (human) = SYK (human) (UniProt P43405)
PRKAA2 (human) = PRKAA2 (human) (UniProt P54646)
RPS6KA4 KD2 (human) = RPS6KA4 KD2 (human) (UniProt O75676)
Chain of RPS6KA4 KD2 (human) (O75676 whole entry, looked up): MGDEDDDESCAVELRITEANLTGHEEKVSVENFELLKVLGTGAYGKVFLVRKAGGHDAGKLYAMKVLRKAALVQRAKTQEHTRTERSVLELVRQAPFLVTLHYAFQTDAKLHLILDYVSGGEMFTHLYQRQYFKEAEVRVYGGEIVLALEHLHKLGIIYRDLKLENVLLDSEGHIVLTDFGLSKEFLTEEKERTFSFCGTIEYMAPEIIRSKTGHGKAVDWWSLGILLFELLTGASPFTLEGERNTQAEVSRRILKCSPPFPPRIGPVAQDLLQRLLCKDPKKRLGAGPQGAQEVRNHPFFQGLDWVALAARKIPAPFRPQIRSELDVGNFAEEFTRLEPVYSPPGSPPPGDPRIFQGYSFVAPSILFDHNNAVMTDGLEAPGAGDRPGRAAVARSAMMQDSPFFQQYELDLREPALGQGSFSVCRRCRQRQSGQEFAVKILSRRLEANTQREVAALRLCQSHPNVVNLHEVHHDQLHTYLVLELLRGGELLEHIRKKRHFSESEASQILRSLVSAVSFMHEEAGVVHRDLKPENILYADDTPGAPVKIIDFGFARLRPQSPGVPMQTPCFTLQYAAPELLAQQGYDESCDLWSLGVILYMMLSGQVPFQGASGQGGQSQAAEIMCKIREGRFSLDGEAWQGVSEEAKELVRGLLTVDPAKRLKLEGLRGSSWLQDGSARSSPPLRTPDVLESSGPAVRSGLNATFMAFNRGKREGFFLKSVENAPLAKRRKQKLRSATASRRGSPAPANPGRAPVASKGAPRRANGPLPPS

PAK6 (human) = PAK6 (human) (UniProt Q9NQU5)
CDK7 (human) = CDK7 (human) (UniProt P50613)
CDC42BPA (human) = CDC42BPA (human) (UniProt Q5VT25)
STK39 (human) = STK39 (human) (UniProt Q9UEW8)
RPS6KA2 KD2 (human) = RPS6KA2 KD2 (human) (UniProt Q15349)
PIK3CG (human) = PIK3CG (human) (UniProt P48736)
[1] = system: EGFR (human), P00533 [T790M/L858R]
MAP3K1 (human) = MAP3K1 (human) (UniProt Q13233)
LRRK2 (human) = LRRK2 (human) (UniProt Q5S007)
MAP3K3 (human) = MAP3K3 (human) (UniProt Q99759)
CDK15 (human) = CDK15 (human) (UniProt Q96Q40)
PIK3CB (human) = PIK3CB (human) (UniProt P42338)
VRK2 (human) = VRK2 (human) (UniProt Q86Y07)
Chain of VRK2 (human) (Q86Y07 whole entry, looked up): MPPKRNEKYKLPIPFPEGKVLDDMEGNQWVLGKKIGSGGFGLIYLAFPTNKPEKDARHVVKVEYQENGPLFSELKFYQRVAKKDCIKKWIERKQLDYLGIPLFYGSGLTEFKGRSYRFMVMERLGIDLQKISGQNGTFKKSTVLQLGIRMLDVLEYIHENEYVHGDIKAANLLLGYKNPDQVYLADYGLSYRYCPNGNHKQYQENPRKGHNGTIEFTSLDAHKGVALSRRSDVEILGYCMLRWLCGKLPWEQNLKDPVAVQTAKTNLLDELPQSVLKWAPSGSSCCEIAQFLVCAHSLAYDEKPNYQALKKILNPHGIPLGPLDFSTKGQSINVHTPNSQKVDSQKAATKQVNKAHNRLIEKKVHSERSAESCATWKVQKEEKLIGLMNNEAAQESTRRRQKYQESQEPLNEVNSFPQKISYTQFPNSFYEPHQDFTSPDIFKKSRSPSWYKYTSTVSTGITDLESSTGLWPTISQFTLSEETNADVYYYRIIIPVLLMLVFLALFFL

PIK3CD (human) = PIK3CD (human) (UniProt O00329)
HUNK (human) = HUNK (human) (UniProt P57058)
BTK (human) = BTK (human) (UniProt Q06187)
Chain of BTK (human) (Q06187 whole entry, looked up): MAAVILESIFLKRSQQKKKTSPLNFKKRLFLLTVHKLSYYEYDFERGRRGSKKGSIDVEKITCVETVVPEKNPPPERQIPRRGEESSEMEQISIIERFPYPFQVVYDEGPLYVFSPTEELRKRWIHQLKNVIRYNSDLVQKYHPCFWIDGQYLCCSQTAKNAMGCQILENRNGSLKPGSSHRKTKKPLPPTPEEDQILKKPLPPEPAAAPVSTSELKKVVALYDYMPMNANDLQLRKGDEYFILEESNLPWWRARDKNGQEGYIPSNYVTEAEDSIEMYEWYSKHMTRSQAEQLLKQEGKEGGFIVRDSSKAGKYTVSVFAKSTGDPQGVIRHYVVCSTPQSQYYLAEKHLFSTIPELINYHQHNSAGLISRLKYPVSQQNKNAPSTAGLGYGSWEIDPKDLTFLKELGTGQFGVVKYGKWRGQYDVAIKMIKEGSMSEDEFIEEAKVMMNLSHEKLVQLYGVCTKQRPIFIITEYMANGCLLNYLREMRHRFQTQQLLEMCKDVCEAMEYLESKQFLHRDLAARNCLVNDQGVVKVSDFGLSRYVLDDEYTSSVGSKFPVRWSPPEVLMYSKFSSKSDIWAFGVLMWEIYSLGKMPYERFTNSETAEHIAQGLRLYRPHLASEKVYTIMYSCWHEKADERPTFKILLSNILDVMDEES

TTK (human) = TTK (human) (UniProt P33981)
CDKL3 (human) = CDKL3 (human) (UniProt Q8IVW4)
DCLK1 (human) = DCLK1 (human) (UniProt O15075)
HIPK4 (human) = HIPK4 (human) (UniProt Q8NE63)
DAPK3 (human) = DAPK3 (human) (UniProt O43293)
Chain of DAPK3 (human) (O43293 whole entry, looked up): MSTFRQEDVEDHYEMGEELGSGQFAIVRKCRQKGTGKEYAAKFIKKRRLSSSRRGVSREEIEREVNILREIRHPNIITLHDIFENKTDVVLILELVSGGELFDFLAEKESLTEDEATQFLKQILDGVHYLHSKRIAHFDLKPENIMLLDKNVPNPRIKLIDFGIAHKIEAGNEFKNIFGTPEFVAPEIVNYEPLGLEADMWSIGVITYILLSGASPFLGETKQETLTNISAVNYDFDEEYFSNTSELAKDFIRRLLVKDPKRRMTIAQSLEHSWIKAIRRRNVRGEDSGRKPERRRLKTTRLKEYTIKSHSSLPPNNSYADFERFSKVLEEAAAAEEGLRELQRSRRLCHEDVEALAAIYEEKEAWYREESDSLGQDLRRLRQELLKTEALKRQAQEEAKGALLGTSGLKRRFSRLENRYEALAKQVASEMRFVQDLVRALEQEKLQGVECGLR

BRSK2 (human) = BRSK2 (human) (UniProt Q8IWQ3)
PRKCH (human) = PRKCH (human) (UniProt P24723)
Chain of PRKCH (human) (P24723 whole entry, looked up): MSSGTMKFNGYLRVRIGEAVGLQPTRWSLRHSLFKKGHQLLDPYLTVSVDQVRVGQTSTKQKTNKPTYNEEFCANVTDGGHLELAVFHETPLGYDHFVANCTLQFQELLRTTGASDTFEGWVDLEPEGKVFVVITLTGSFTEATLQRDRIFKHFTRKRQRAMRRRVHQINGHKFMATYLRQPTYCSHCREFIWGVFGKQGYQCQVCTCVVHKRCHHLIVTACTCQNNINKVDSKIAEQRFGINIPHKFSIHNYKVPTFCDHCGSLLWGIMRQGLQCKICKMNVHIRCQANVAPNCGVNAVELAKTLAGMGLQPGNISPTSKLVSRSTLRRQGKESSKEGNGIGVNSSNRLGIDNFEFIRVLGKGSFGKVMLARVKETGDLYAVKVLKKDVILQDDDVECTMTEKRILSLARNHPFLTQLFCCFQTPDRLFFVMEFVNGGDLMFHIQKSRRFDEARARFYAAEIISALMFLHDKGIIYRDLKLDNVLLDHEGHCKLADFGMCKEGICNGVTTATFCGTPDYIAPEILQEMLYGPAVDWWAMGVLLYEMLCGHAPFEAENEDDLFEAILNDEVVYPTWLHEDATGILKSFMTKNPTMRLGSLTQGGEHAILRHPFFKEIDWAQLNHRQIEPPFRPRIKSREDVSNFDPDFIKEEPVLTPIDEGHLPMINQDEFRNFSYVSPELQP

RIOK3 (human) = RIOK3 (human) (UniProt O14730)
BMP2K (human) = BMP2K (human) (UniProt Q9NSY1)
ICK (human) = ICK (human) (UniProt Q9UPZ9)
STK38 (human) = STK38 (human) (UniProt Q15208)
CSNK2A1 (human) = CSNK2A1 (human) (UniProt P68400)
TXK (human) = TXK (human) (UniProt P42681)
PRKACA (human) = PRKACA (human) (UniProt P17612)
SNRK (human) = SNRK (human) (UniProt Q9NRH2)
Chain of SNRK (human) (Q9NRH2 whole entry, looked up): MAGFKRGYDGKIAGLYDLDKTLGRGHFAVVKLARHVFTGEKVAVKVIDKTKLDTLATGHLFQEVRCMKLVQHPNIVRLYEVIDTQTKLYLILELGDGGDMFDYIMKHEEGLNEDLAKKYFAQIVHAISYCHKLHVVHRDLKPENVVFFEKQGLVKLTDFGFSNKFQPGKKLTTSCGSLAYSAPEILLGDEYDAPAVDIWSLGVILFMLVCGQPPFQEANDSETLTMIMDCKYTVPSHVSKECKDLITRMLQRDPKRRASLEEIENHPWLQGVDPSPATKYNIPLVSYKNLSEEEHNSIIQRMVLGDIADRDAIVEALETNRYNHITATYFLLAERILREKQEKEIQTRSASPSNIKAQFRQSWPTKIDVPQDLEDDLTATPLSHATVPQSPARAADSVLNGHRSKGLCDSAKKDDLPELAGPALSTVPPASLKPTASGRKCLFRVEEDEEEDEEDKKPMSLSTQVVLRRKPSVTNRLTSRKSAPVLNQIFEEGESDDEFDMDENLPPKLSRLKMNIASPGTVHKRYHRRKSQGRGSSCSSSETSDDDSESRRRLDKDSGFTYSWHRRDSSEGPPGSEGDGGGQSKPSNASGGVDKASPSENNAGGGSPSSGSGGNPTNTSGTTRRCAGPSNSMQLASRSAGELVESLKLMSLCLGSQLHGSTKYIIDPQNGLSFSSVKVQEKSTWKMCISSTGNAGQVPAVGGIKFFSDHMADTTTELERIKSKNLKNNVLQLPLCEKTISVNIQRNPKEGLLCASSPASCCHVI

CDK4 CCND3 (human) = CDK4 CCND3 (human) (UniProt P11802+P30281)
MAP2K2 (human) = MAP2K2 (human) (UniProt P36507)
BMPR1A (human) = BMPR1A (human) (UniProt P36894)
[2] = system: EGFR (human), P00533 [747-751 del / S ins]

Chain of MST4 (human) (Q9P289 whole entry, looked up): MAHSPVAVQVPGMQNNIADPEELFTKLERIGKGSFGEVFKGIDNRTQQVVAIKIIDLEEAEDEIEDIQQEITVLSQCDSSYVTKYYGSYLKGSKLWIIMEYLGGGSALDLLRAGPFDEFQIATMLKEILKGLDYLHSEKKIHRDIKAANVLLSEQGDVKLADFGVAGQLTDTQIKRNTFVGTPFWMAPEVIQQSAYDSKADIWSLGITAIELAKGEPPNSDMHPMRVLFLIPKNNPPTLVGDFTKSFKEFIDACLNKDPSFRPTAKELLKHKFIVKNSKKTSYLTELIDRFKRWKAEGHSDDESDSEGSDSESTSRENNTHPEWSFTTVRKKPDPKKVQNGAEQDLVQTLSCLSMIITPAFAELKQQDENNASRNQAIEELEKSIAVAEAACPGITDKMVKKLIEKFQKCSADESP
Chain of PRKAA2 (human) (P54646 whole entry, looked up): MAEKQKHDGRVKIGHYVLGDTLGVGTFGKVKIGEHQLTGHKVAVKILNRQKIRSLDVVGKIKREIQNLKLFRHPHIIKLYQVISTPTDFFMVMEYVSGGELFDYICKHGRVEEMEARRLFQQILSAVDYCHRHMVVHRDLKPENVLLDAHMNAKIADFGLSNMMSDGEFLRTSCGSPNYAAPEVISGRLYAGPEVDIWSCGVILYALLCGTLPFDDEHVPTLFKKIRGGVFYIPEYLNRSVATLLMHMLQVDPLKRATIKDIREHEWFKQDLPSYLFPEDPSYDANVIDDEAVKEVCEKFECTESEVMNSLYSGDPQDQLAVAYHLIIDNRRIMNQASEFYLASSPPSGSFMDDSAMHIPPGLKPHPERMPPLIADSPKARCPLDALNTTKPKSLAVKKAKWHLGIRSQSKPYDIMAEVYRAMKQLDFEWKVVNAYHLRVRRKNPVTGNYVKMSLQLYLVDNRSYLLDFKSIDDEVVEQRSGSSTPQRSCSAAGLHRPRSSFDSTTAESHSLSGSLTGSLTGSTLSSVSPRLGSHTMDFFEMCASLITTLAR

For `CN(C)C/C=C/C(=O)Nc1cccc(C(=O)Nc2ccc(Nc3nccc(-c4c(-c5ccccc5)nn5ccccc45)n3)cc2)c1`, the kinase still bound, per cent of control (DYRK1A (human)) was 90%, the kinase still bound, per cent of control (CSK (human)) was 89% and the kinase still bound, per cent of control (MST4 (human)) was 85%. It also gave a kinase still bound, per cent of control (ROCK2 (human)) of 75%, a kinase still bound, per cent of control (SYK (human)) of 82% and a kinase still bound, per cent of control (PRKAA2 (human)) of 90%. The kinase still bound, per cent of control (RPS6KA4 KD2 (human)) was 91%, the kinase still bound, per cent of control (PAK6 (human)) was 100% and the kinase still bound, per cent of control (CDK7 (human)) was 83%. It also gave a kinase still bound, per cent of control (CDC42BPA (human)) of 13%, a kinase still bound, per cent of control (STK39 (human)) of 82% and a kinase still bound, per cent of control (RPS6KA2 KD2 (human)) of 82%. For the same molecule, the kinase still bound, per cent of control (PIK3CG (human)) was 84%, the kinase still bound, per cent of control [1] was 36% and the kinase still bound, per cent of control (MAP3K1 (human)) was 96%. For the same molecule, the kinase still bound, per cent of control (LRRK2 (human)) was 72%, the kinase still bound, per cent of control (MAP3K3 (human)) was 68% and the kinase still bound, per cent of control (CDK15 (human)) was 100%. It also gave a kinase still bound, per cent of control (PIK3CB (human)) of 100%, a kinase still bound, per cent of control (VRK2 (human)) of 85% and a kinase still bound, per cent of control (PIK3CD (human)) of 95%. It also gave a kinase still bound, per cent of control (HUNK (human)) of 67%, a kinase still bound, per cent of control (BTK (human)) of 100% and a kinase still bound, per cent of control (TTK (human)) of 94%. The kinase still bound, per cent of control (CDKL3 (human)) was 100%, the kinase still bound, per cent of control (DCLK1 (human)) was 93% and the kinase still bound, per cent of control (HIPK4 (human)) was 70%. The kinase still bound, per cent of control (DAPK3 (human)) was 93%, the kinase still bound, per cent of control (BRSK2 (human)) was 100% and the kinase still bound, per cent of control (PRKCH (human)) was 100%. It also gave a kinase still bound, per cent of control (RIOK3 (human)) of 97%, a kinase still bound, per cent of control (BMP2K (human)) of 100% and a kinase still bound, per cent of control (ICK (human)) of 100%. The kinase still bound, per cent of control (STK38 (human)) was 97%, the kinase still bound, per cent of control (CSNK2A1 (human)) was 74% and the kinase still bound, per cent of control (TXK (human)) was 24%. It also gave a kinase still bound, per cent of control (PRKACA (human)) of 99%, a kinase still bound, per cent of control (SNRK (human)) of 100% and a kinase still bound, per cent of control (CDK4 CCND3 (human)) of 81%. The kinase still bound, per cent of control (MAP2K2 (human)) was 88%, the kinase still bound, per cent of control (BMPR1A (human)) was 66% and the kinase still bound, per cent of control [2] was 3.4%.
`CN(C)C/C=C/C(=O)Nc1cccc(C(=O)Nc2ccc(Nc3nccc(/C(C#N)=C4\Nc5ccccc5S4)n3)cc2)c1` gave a kinase still bound, per cent of control (DYRK1A (human)) of 87%, a kinase still bound, per cent of control (CSK (human)) of 100% and a kinase still bound, per cent of control (MST4 (human)) of 100%. For the same molecule, the kinase still bound, per cent of control (ROCK2 (human)) was 100%, the kinase still bound, per cent of control (SYK (human)) was 85% and the kinase still bound, per cent of control (PRKAA2 (human)) was 100%. For the same molecule, the kinase still bound, per cent of control (RPS6KA4 KD2 (human)) was 100%, the kinase still bound, per cent of control (PAK6 (human)) was 100% and the kinase still bound, per cent of control (CDK7 (human)) was 94%. The kinase still bound, per cent of control (CDC42BPA (human)) was 98%, the kinase still bound, per cent of control (STK39 (human)) was 100% and the kinase still bound, per cent of control (RPS6KA2 KD2 (human)) was 100%. It also gave a kinase still bound, per cent of control (PIK3CG (human)) of 51%, a kinase still bound, per cent of control [1] of 100% and a kinase still bound, per cent of control (MAP3K1 (human)) of 100%. It also gave a kinase still bound, per cent of control (LRRK2 (human)) of 57%, a kinase still bound, per cent of control (MAP3K3 (human)) of 100% and a kinase still bound, per cent of control (CDK15 (human)) of 100%. The kinase still bound, per cent of control (PIK3CB (human)) was 100%, the kinase still bound, per cent of control (VRK2 (human)) was 100% and the kinase still bound, per cent of control (PIK3CD (human)) was 100%. For the same molecule, the kinase still bound, per cent of control (HUNK (human)) was 99%, the kinase still bound, per cent of control (BTK (human)) was 76% and the kinase still bound, per cent of control (TTK (human)) was 100%. It also gave a kinase still bound, per cent of control (CDKL3 (human)) of 100%, a kinase still bound, per cent of control (DCLK1 (human)) of 100% and a kinase still bound, per cent of control (HIPK4 (human)) of 6%. The kinase still bound, per cent of control (DAPK3 (human)) was 100%, the kinase still bound, per cent of control (BRSK2 (human)) was 100% and the kinase still bound, per cent of control (PRKCH (human)) was 100%. It also gave a kinase still bound, per cent of control (RIOK3 (human)) of 100%, a kinase still bound, per cent of control (BMP2K (human)) of 51% and a kinase still bound, per cent of control (ICK (human)) of 100%. It also gave a kinase still bound, per cent of control (STK38 (human)) of 100%, a kinase still bound, per cent of control (CSNK2A1 (human)) of 27% and a kinase still bound, per cent of control (TXK (human)) of 100%. For the same molecule, the kinase still bound, per cent of control (PRKACA (human)) was 88%, the kinase still bound, per cent of control (SNRK (human)) was 100% and the kinase still bound, per cent of control (CDK4 CCND3 (human)) was 100%. For the same molecule, the kinase still bound, per cent of control (MAP2K2 (human)) was 100%, the kinase still bound, per cent of control (BMPR1A (human)) was 100% and the kinase still bound, per cent of control [2] was 85%.
